Test results as given in article PMC9851200, “Multiparameter phenotypic screening for endogenous TFEB and TFE3 translocation identifies novel chemical series modulating lysosome function” (Autophagy, 2022).

Legend:
Format in all cases: binding
[1] = target: T1, kinases (KINOMEscan panel) (Homo sapiens, UniProt O76039); conditions: kinase CDKL5; NEW KINOMEscan
T1 sequence (O76039 1-960): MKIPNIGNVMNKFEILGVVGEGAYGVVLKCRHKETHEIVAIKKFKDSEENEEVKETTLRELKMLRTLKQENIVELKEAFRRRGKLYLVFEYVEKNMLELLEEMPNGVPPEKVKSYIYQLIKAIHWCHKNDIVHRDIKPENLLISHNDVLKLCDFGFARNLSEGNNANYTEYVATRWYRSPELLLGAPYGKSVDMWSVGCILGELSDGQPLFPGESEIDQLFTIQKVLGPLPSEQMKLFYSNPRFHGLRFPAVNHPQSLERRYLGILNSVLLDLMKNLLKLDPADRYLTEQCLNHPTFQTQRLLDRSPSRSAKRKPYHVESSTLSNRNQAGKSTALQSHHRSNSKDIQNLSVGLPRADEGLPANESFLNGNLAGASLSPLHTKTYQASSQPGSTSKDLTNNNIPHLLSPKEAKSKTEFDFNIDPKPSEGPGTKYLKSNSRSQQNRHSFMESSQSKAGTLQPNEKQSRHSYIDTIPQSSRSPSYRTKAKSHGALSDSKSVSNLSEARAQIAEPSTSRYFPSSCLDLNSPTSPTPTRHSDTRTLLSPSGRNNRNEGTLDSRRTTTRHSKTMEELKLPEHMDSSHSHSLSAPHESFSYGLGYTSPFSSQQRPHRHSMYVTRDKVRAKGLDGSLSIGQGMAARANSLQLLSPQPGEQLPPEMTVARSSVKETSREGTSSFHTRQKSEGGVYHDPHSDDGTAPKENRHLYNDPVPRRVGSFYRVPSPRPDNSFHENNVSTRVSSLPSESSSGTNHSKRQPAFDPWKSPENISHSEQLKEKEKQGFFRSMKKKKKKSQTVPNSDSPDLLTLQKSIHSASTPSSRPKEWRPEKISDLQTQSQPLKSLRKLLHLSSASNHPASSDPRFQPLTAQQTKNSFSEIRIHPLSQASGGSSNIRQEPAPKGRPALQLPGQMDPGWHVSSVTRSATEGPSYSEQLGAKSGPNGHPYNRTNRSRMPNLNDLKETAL

[2] = target: kinases (KINOMEscan panel) (Homo sapiens, UniProt P10721, D816H); conditions: NEW KINOMEscan
Sequence of kinases (KINOMEscan panel) (Homo sapiens, UniProt P10721, D816H) (P10721 26-976 D816H): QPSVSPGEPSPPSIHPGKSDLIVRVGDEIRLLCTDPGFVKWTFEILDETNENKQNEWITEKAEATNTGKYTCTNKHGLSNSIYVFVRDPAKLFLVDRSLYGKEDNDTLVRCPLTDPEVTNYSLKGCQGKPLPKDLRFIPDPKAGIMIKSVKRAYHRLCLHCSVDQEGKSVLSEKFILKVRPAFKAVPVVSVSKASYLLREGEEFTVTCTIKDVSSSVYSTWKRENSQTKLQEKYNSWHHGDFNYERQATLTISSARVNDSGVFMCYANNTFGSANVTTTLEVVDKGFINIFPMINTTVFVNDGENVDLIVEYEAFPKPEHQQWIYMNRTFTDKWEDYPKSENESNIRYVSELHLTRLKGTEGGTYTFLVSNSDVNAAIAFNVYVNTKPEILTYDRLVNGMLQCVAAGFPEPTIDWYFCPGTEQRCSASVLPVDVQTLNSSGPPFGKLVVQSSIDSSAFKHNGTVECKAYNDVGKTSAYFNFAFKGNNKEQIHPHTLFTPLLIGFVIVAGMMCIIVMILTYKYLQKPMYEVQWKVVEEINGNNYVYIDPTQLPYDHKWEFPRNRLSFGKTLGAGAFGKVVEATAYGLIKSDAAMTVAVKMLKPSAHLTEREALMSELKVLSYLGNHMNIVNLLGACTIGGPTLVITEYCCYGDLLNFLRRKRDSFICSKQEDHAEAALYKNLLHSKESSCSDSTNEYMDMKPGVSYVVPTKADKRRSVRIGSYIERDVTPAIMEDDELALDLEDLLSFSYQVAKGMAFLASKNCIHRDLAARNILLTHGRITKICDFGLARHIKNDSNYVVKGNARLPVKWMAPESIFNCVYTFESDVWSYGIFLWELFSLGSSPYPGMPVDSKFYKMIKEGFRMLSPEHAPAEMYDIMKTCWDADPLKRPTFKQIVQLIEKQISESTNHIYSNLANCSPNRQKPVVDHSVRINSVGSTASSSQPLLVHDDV

[3] = target: kinases (KINOMEscan panel) (Homo sapiens, UniProt P17948); conditions: kinase FLT1; NEW KINOMEscan
[4] = target: kinases (KINOMEscan panel) (Homo sapiens, UniProt P29376); conditions: LTK; NEW KINOMEscan
Sequence of kinases (KINOMEscan panel) (Homo sapiens, UniProt P29376) (P29376 17-864): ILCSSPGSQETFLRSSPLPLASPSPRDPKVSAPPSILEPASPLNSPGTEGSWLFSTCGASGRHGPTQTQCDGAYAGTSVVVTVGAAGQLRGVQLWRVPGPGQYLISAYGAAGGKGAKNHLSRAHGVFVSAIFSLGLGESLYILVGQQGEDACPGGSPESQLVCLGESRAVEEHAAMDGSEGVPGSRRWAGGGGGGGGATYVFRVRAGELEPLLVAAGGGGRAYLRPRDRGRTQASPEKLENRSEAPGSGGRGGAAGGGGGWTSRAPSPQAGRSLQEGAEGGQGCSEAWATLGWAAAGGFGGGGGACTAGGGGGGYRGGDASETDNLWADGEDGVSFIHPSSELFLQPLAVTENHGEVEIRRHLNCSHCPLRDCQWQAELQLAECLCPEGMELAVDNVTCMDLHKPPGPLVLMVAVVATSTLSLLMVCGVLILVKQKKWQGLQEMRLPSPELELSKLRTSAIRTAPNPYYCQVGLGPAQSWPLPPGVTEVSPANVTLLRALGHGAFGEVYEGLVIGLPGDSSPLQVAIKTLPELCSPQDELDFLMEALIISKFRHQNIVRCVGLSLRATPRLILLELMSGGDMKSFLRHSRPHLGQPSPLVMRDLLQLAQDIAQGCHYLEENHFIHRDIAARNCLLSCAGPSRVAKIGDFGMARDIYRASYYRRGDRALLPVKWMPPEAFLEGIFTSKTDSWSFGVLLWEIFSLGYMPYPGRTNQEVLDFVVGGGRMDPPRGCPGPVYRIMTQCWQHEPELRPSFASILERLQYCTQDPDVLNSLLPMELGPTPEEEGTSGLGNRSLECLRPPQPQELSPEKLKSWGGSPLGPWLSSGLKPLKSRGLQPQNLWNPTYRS

[5] = target: kinases (KINOMEscan panel) (Homo sapiens, UniProt P36888, D835H); conditions: kinase FLT3(D835H); NEW KINOMEscan
[6] = target: kinases (KINOMEscan panel) (Homo sapiens, UniProt P42336, E542K); conditions: NEW KINOMEscan
Sequence of kinases (KINOMEscan panel) (Homo sapiens, UniProt P42336, E542K) (P42336 whole entry E542K): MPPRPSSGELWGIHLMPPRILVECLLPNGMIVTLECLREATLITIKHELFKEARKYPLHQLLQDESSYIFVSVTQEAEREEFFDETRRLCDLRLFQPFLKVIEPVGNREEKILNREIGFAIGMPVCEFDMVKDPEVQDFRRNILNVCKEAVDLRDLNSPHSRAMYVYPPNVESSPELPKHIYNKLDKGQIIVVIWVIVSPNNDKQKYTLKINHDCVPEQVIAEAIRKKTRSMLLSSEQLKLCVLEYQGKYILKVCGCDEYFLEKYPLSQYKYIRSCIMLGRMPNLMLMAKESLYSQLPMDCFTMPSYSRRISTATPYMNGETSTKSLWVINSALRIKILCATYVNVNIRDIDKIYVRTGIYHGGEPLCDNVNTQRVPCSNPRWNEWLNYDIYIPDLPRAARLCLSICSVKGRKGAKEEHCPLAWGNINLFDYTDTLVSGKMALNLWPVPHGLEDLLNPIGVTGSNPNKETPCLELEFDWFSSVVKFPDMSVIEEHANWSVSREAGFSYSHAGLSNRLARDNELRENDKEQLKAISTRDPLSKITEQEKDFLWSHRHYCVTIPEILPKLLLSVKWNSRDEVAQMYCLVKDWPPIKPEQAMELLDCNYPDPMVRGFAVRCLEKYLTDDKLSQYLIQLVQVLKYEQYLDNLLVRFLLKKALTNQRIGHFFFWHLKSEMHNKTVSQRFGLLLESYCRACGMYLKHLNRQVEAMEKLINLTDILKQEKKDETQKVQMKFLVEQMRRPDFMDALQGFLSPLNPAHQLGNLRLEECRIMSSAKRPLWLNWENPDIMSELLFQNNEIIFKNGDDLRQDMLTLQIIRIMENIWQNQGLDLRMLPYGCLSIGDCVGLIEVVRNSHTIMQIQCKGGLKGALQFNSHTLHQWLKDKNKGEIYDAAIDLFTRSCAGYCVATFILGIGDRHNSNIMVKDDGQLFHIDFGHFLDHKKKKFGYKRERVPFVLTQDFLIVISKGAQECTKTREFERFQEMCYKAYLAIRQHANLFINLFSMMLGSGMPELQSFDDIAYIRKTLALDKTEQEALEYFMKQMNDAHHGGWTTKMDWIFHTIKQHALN

[7] = target: kinases (KINOMEscan panel) (Homo sapiens, UniProt P49759); conditions: kinase CLK1; NEW KINOMEscan
Sequence of kinases (KINOMEscan panel) (Homo sapiens, UniProt P49759) (P49759 whole entry): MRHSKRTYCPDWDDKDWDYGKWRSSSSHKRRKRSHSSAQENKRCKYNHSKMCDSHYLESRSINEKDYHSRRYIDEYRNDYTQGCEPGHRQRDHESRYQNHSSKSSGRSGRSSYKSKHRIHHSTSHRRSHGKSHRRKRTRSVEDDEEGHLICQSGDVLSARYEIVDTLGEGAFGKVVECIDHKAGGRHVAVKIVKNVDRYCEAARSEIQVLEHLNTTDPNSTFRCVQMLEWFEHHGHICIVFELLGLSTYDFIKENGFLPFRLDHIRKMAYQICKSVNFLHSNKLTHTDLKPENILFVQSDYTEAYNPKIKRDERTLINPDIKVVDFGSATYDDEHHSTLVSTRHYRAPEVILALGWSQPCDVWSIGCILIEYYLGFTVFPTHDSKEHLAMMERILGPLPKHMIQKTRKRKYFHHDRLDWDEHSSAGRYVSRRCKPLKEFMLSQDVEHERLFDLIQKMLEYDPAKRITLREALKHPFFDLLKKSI

[8] = target: kinases (KINOMEscan panel) (Homo sapiens, UniProt P53671); conditions: LIMK2; NEW KINOMEscan
Sequence of kinases (KINOMEscan panel) (Homo sapiens, UniProt P53671) (P53671 whole entry): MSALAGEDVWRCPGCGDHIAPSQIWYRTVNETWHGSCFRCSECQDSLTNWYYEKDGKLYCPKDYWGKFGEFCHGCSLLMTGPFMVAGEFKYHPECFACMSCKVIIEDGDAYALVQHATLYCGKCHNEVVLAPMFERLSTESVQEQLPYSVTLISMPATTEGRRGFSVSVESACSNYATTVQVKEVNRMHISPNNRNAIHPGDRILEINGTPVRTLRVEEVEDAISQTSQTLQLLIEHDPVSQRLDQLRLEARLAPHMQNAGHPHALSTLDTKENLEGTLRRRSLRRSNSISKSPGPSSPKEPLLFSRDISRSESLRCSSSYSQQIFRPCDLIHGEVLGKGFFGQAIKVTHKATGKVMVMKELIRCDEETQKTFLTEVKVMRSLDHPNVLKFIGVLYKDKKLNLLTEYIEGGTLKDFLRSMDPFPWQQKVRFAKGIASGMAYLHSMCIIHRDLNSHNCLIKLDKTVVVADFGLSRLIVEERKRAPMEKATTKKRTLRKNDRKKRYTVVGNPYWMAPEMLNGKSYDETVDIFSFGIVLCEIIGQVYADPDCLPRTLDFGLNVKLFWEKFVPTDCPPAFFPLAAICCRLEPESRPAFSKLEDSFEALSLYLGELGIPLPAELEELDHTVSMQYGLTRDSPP

[9] = target: kinases (KINOMEscan panel) (Homo sapiens, UniProt P80192); conditions: NEW KINOMEscan
[10] = target: kinases (KINOMEscan panel) (Homo sapiens, UniProt Q00532); conditions: CDKL1; NEW KINOMEscan
[11] = target: kinases (KINOMEscan panel) (Homo sapiens, UniProt Q13523); conditions: PRPF4B; NEW KINOMEscan
[12] = target: kinases (KINOMEscan panel) (Homo sapiens, UniProt Q15375); conditions: EPHA7; NEW KINOMEscan
Sequence of kinases (KINOMEscan panel) (Homo sapiens, UniProt Q15375) (Q15375 28-998): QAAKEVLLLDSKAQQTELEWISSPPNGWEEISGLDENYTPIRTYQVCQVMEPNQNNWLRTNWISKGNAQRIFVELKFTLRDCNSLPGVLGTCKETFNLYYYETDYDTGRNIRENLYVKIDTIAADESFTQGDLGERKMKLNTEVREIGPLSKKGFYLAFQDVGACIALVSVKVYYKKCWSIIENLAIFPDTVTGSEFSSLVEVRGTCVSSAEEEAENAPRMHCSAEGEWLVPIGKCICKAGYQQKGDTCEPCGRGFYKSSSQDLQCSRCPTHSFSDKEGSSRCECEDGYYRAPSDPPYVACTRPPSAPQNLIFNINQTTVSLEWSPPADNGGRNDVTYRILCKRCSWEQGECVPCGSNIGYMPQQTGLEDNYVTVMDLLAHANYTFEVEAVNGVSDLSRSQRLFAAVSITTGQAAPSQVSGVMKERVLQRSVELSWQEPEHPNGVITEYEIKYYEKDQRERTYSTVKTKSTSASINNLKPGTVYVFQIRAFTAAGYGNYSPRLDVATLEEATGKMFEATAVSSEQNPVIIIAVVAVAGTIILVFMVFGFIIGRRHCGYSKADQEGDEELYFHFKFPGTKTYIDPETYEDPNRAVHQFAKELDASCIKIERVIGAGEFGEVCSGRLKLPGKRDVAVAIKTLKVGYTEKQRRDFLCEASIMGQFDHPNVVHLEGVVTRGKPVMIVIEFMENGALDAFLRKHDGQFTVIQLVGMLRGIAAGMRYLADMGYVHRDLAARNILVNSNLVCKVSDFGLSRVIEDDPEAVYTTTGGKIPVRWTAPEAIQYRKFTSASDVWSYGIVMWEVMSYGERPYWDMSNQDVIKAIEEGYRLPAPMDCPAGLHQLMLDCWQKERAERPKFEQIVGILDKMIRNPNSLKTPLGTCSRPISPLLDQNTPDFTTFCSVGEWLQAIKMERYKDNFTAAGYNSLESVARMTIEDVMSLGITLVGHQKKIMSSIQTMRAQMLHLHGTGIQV

[13] = target: T2, kinases (KINOMEscan panel) (Homo sapiens, UniProt Q8N752); conditions: CSNK1A1L; NEW KINOMEscan
T2 sequence (Q8N752 1-337): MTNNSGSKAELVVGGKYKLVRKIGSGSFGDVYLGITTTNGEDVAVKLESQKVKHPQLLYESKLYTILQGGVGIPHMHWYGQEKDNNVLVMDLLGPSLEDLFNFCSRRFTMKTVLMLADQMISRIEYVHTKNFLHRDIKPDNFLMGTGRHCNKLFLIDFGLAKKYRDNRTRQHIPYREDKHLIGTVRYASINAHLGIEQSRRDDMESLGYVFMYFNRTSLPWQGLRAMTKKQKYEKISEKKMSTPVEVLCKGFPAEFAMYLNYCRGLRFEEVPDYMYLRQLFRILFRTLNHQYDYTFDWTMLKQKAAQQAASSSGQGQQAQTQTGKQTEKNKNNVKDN

[14] = target: T3, kinases (KINOMEscan panel) (Homo sapiens, UniProt Q92772); conditions: CDKL2; NEW KINOMEscan
T3 sequence (Q92772 1-493): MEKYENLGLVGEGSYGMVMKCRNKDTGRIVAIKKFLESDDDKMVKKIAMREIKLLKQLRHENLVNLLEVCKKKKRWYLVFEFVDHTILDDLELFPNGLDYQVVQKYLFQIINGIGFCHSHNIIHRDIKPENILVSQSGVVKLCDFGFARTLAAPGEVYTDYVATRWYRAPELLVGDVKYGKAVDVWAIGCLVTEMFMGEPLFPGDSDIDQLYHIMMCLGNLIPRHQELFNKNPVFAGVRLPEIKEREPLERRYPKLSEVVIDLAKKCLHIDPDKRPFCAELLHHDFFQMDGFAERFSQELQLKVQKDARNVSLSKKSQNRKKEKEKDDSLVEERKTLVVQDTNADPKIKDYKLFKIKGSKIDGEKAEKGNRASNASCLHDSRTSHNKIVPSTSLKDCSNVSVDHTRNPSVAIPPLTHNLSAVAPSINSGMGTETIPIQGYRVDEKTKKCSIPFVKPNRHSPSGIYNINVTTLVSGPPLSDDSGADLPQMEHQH

[15] = target: kinases (KINOMEscan panel) (Homo sapiens, UniProt Q99558); conditions: kinase MAP3K14; NEW KINOMEscan
[16] = target: kinases (KINOMEscan panel) (Homo sapiens, UniProt Q9UBF8); conditions: kinase PI4KB; NEW KINOMEscan

Row | SMILES | KINOMEscan CDKL5 [1] | KINOMEscan KIT(D816H) [2] | KINOMEscan FLT1 [3] | KINOMEscan LTK [4] | KINOMEscan FLT3(D835H) [5] | KINOMEscan PIK3CA(E542K) [6] | KINOMEscan CLK1 [7] | KINOMEscan LIMK2 [8] | KINOMEscan MAP3K9 [9] | KINOMEscan CDKL1 [10] | KINOMEscan PRPF4B [11] | KINOMEscan EPHA7 [12] | KINOMEscan CSNK1A1L [13] | KINOMEscan CDKL2 [14] | KINOMEscan MAP3K14 [15] | KINOMEscan PI4KB [16]
1 | Cc1cccc(-c2nc(Nc3ccc4nn(C)cc4c3)c3ccccc3n2)n1 [NK167] | 0 | 13 | 4 | 6 | 0 | 15 | 0 | 3 | 11 | 44 | 0 | 0 | 0 | 0 | 0 | 0
2 | Cc1cccc(-c2nc(N(C)c3ccc4ncsc4c3)c3ccccc3n2)n1 [NK-161] | 3 | 16 | 12 | 14 | 4 | 19 | 2 | 9 | 27 | 36 | 0 | 0 | 12 | 0 | 2 | 0
